pIC50: −log10 of the molar value.
Assays:
Type in all cases: cell-based
[1] = tested on: T47D (PI3Kα H1047R mutant) cells; assay: CellTiter-Glo 2.0 luminescent cell viability assay, 72 hours, T47D cells; conditions: Homo sapiens, T47D, 72 h, T47D (PI3Kα H1047R mutant) cells, CellTiter-Glo, approximately 72 hours; read-out: T47D (H1047R mutant) Viability IC50
In short: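 Cells seeded at 1000 per well overnight were dosed with a 10-concentration, 1:4 series starting at 10 µM and incubated ~72 h at 37° C. Viability was read by CellTiter-Glo 2.0 luminescence after 30 min at room temperature. IC50 came from four-parameter fits of percent vehicle control.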

[2] = tested on: T47D (PI3Kα H1047R mutant) cells; assay: Inhibition of pAKT formation, alphaLISA SureFire Ultra AKT 1/2/3 (pS473), T47D cells; conditions: Homo sapiens, T47D, T47D (PI3Kα H1047R mutant) cells; inhibition of pAKT (pS473) formation; approximately one hour or 24 hours treatment; read-out: T47D pAKT (H1047R mutant) IC50
In short: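 T47D cells (12,000/well) in HBSS were dosed with compound at 10 concentrations (10.4 μM top, 1:4 dilutions) for about 1 h or 24 h at 37 °C, then lysed. pS473 AKT was read by alphaLISA. Signals were normalized to alpelisib and DMSO controls, and IC50 came from a four-parameter fit.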

[3] = tested on: MKN1 (PI3Kα E545K mutant) cells; assay: CellTiter-Glo 2.0 luminescent cell viability assay, 72 hours, MKN1 cells; conditions: Homo sapiens, MKN-1; MKN1 (PI3Kα E545K mutant) cells, CellTiter-Glo, approximately 72 hours; read-out: MKN1 (E545K) Viability IC50
Experimental: This Example illustrates that exemplary compounds of the present invention decrease the viability of cells.
The ability of a compound of Formula (I) to decrease the viability of cells was measured using CellTiter-Glo 2.0 (CTG) Luminescent Cell Viability Assay (#G9241) obtained from Promega (Madison, WI).
To prepare assay plates for viability assays, cells were trypsinized, resuspended in fresh media, and viable cells were counted utilizing trypan blue exclusion. T47D, SKBR3, or MKN1 cells were seeded at 1000 cells in 30 μl per well in a solid white flat bottom 384 cell culture plate (Perkin Elmer #6007680) and incubated at 37° C. overnight.
Assay day 1, cells were dosed using an Echo Liquid Handler (Beckman Coulter) with compounds at a 10 um starting concentration and serially diluted (1:4) for a total of 10 concentrations. Cells were incubated for approximately 72 hours with the compounds (solubilized in DMSO) at 37° C. After 72 hours of treatment, cell plates were equilibrated to room temperature before adding 15 μl of CTG to each well, plates were then covered in aluminum foil to protect from light, incubated at room temperature for 30 minutes on a microtiter plate shaker, and luminescence readings were collected using a CLARIOstar microplate reader (BMG Labtech, Germany). Percent of vehicle control values were plotted as log (inhibitor) vs. response-Variable slope (four parameters) for curve fitting and IC50 values were determined using XLfit.

[4] = tested on: SKBR3 (PI3Kα wild type) cells; assay: Inhibition of pAKT formation, alphaLISA SureFire Ultra AKT 1/2/3 (pS473), SKBR3 cells; conditions: Homo sapiens, SK-BR-3; Inhibition of pAKT in SKBR3 (PI3Kα wild type) cells; read-out: SKBR3 (WT) pAKT IC50 (nM) (H1047R mutant) IC50
Experimental: (§1) The ability of a compound of Formula (I) to inhibit the formation of pAKT was measured using alphaLISA Surefire Ultra AKT 1/2/3 (pS473) Assay Kit (#ALSU-PAKT-B50K) was obtained from Perkin Elmer (Waltham, MA).
(§2) To prepare assay plates for pAKT alphaLISA assays, cells were trypsinized, resuspended in fresh media, and viable cells were counted utilizing trypan blue exclusion. Prior to seeding, cells were washed with PBS and resuspended in HBSS (Gibco, #14025092). T47D (12,000/w), SKBR3(12,000/w), or MKN1(24,000/w) cells were seeded at 12 μl per well in a solid white flat bottom 384 cell culture plate (Perkin Elmer #6007680).
(§3) Immediately after seeding, cells were dosed using an Echo Liquid Handler (Beckman Coulter) with compounds at a […] starting concentration and serially diluted (1:4) for a total of 10 concentrations. […] Cells were incubated with the compounds (solubilized in DMSO) for approximately one hour or 24 hours at 37° C. After one hour (or 24 hours) of treatment, cells were lysed with 3 μl of the 5× lysis buffer (provided and incubated at room temperature for 15 min on a microtiter plate shaker). Once cells were sufficiently lysed, 7.5 μl of the acceptor bead mix (made using the manufacturers recommended dilutions) was added to each well and left on the microtiter plate shaker for 1 min prior to incubating plates at room temperature for one hour, in the absence of light. After one hour of incubation with the acceptor bead mix, 7.5 μl of the donor bead mix (made using the manufacturers recommended dilutions) was added to each well and left on the microtiter plate shaker for 1 min prior to incubating plates at room temperature overnight in the absence of light. Plates were then imaged the following day using a CLARIOstar microplate reader (BMG Labtech, Germany).
(§4) Percent of control values were calculated by subtracting the average signal from the positive control (alpelisib) treated wells from all treated wells (including DMSO control wells) and then divided by the average signal from the vehicle DMSO treated control wells. Percent of vehicle control values were plotted as log (inhibitor) vs. response-Variable slope (four parameters) for curve fitting and IC50 values were determined using XLfit.
(§5) Key: N.D. =not determined

[5] = tested on: SKBR3 (PI3Kα wild type) cells; assay: CellTiter-Glo 2.0 luminescent cell viability assay, 72 hours, SKBR3 cells; conditions: Homo sapiens, SK-BR-3, 72 h, SKBR3 (PI3Kα wild type) cells, CellTiter-Glo, approximately 72 hours; read-out: SKBR3 (WT) Viability IC50
In short: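 Viability measured via CTG luminescence following roughly 72 hours of compound exposure at 37° C. Dosing used a 10 um starting concentration diluted 1:4 over 10 points; percent-of-vehicle data fitted with a variable-slope four-parameter model for IC50.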

[6] = tested on: MKN1 (PI3Kα E545K mutant) cells; assay: Inhibition of pAKT formation, alphaLISA SureFire Ultra AKT 1/2/3 (pS473), MKN1 cells; conditions: Homo sapiens, MKN-1; MKN1 (PI3Kα E545K mutant) cells; inhibition of pAKT (pS473) formation; approximately one hour or 24 hours treatment; read-out: MKN1 (E545K) pAKT IC50
Experimental: as §1, §2, §3, §4, §5

Structure (SMILES)	pIC50 [1]	pIC50 [2]	pIC50 [3]	IC50 [4] [nM]	pIC50 [5]	pIC50 [6]
Cc1cc([C@@H](C)Nc2ccccc2C(=O)O)c2nc(N3CCCCC3)cc(=O)n2c1 (single isomer, unassigned) [Example 3-1]	5.90	7.83	< 5.00	> 10000	< 5.00	5.60
Cc1cc(C(C)Oc2ccccc2C(=O)O)c2nc(N3CCCCC3)cc(=O)n2c1 (stereo not drawn) [Example 3-9, 2-(1-(7-methyl-4-oxo-2-(piperidin-1-yl)-4H-pyrido[1,2-a]pyrimidin-9-yl)ethoxy)benzoic acid]	< 5.00	< 5.00	< 5.00	583	< 5.00	< 5.00
Cc1cc(C(C)Nc2cc(O)ccc2C(=O)O)c2nc(N3CCCCC3)cc(=O)n2c1 (stereo not drawn) [Example 3-8, 4-hydroxy-2-((1-(7-methyl-4-oxo-2-(piperidin-1-yl)-4H-pyrido[1,2-a]pyrimidin-9-yl)ethyl)amino)benzoic acid]	< 5.00	5.52	< 5.00	> 10000	< 5.00	< 5.00
COc1cccc(NC(C)c2cc(C)cn3c(=O)cc(N4CCCCC4)nc23)c1C(=O)O (stereo not drawn) [Example 3-3, 2-methoxy-6-((1-(7-methyl-4-oxo-2-(piperidin-1-yl)-4H-pyrido[1,2-a]pyrimidin-9-yl)ethyl)amino)benzoic acid]	< 5.00	5.56	< 5.00	> 10000	< 5.00	< 5.00
Cc1cc(C(C)NC(=O)CCl)c2nc(N3CCCCC3)cc(=O)n2c1 (stereo not drawn) [Example 4-3, 2-chloro-N-(1-(7-methyl-4-oxo-2-(piperidin-1-yl)-4H-pyrido[1,2-a]pyrimidin-9-yl)ethyl)acetamide]	< 5.00	< 5.00	5.21	> 10000	5.31	< 5.00
Cc1cc(C(C)Nc2ccccc2C#N)c2nc(N3CCCCC3)cc(=O)n2c1 (stereo not drawn) [Example 3-11, 2-((1-(7-methyl-4-oxo-2-(piperidin-1-yl)-4H-pyrido[1,2-a]pyrimidin-9-yl)ethyl)amino)benzonitrile]	< 5.00	< 5.00	< 5.00	> 10000	< 5.00	< 5.00
Cc1cc(C(C)Nc2cccc3cn[nH]c23)c2nc(N3CCCCC3)cc(=O)n2c1 (stereo not drawn) [Example 3-17, 9-(1-((1H-indazol-7-yl)amino)ethyl)-7-methyl-2-(piperidin-1-yl)-4H-pyrido[1,2-a]pyrimidin-4-one]	< 5.00	< 5.00	< 5.00	> 10000	5.01	< 5.00
C=CC(=O)NC(C)c1cc(C)cn2c(=O)cc(N3CCCCC3)nc12 (stereo not drawn) [Example 4-1, N-(1-(7-methyl-4-oxo-2-(piperidin-1-yl)-4H-pyrido[1,2-a]pyrimidin-9-yl)ethyl)acrylamide]	< 5.00	< 5.00	< 5.00	> 10000	< 5.00	< 5.00
Cc1cc(C(C)Nc2ccccc2C(O)C(F)(F)F)c2nc(N3CCCCC3)cc(=O)n2c1 (stereo not drawn) [Example 3-18, 7-methyl-2-(piperidin-1-yl)-9-(1-((2-(2,2,2-trifluoro-1-hydroxyethyl)phenyl)amino)ethyl)-4H-pyrido[1,2-a]pyrimidin-4-one]	5.38	5.86	< 5.00	> 10000	< 5.00	< 5.00
Cc1cc([C@H](C)Nc2ccccc2C(=O)O)c2nc(N3CCCCC3)cc(=O)n2c1 (single isomer, unassigned) [Example 3-2]	< 5.00	5.72	< 5.00	> 10000	< 5.00	6.12

Other lines, results leading:

pIC50 [1]	pIC50 [2]	pIC50 [3]	IC50 [4] [nM]	pIC50 [5]	pIC50 [6]	Structure (SMILES)
< 5.00	7.49	< 5.00	3540	< 5.00	< 5.00	CC(Nc1ccccc1C(=O)O)c1cc(C2CC2)cn2c(=O)cc(N3CCCCC3)nc12 (stereo not drawn) [Example 5-3, 2-((1-(7-cyclopropyl-4-oxo-2-(piperidin-1-yl)-4H-pyrido[1,2-a]pyrimidin-9-yl)ethyl)amino)benzoic acid]
6.78	7.27	5.01	932	< 5.00	5.26	Cc1cc(C(C)Nc2ccccc2C(=O)O)c2nc(N3CCCCC3)c(C#N)c(=O)n2c1 (stereo not drawn) [Example 8-1, 2-((1-(3-cyano-7-methyl-4-oxo-2-(piperidin-1-yl)-4H-pyrido[1,2-a]pyrimidin-9-yl)ethyl)amino)benzoic acid]
< 5.00	7.03	< 5.00	> 10000	< 5.00	< 5.00	Cc1cc(C(C)Nc2ccccc2C(=O)O)c2nc(C3CC3)cc(=O)n2c1 (stereo not drawn) [6-2, 2-((1-(2-cyclopropyl-7-methyl-4-oxo-4H-pyrido[1,2-a]pyrimidin-9-yl)ethyl)amino)benzoic acid]
< 5.00	7.47	< 5.00	> 10000	< 5.00	< 5.00	CC(Nc1ccccc1C(=O)O)c1cccn2c(=O)cc(N3CCC(C)(C)CC3)nc12 (stereo not drawn) [Example 9-2, 2-((1-(2-(4,4-dimethylpiperidin-1-yl)-4-oxo-4H-pyrido[1,2-a]pyrimidin-9-yl)ethyl)amino) benzoic acid]
5.74	7.39	< 5.00	6120	< 5.00	< 5.00	Cc1c(N2CCC(C)(C)CC2)nc2c(C(C)Nc3ccccc3C(=O)O)cccn2c1=O (stereo not drawn) [Example 5-10, 2-((1-(2-(4,4-dimethylpiperidin-1-yl)-3-methyl-4-oxo-4H-pyrido[1,2-a]pyrimidin-9-yl)ethyl)amino)benzoic acid]
6.14	7.96	< 5.00	> 10000	< 5.00	5.51	Cc1c(N2CCCCC2)nc2c(C(C)Nc3ccccc3C(=O)O)cccn2c1=O (stereo not drawn) [Example 5-11, 2-((1-(3-methyl-4-oxo-2-(piperidin-1-yl)-4H-pyrido[1,2-a]pyrimidin-9-yl)ethyl)amino)benzoic acid]

From patent US20260078120A1, “SUBSTITUTED PYRIDOPYRIMIDINONES” (MIRATI THERAPEUTICS, INC., priority 2022, published 2026)
